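Grown in 96-well plates, cells were treated for 48 hours with each compound at five concentrations. Insufficient inhibition: endpoint recorded as highest concentration tested. Abbreviation: GI50, concentration required for 50% inhibition of growth. TGI: total growth inhibition.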

For 15 compounds, TGI and GI50 results are on record in PubChem BioAssay (NCI).

Among the test systems are CCRF-CEM leukemia; DU-145 prostate; HCT-116 colon; HCT-15 colon; HOP-62 NSCLC; IGROV1 ovarian; SK-MEL-2 melanoma; T-47D breast; U251 CNS; NCI-H226 lung.
Experiment in all cases: DTP human tumour cell line panel, 48 h

As usually defined, the TGI is the concentration at which net growth stops. Higher therefore signals lower sensitivity of the cells. For the compound `CC(=O)NC1C(OCc2ccccc2)OC(CO)C(O)C1OCC(=O)N[C@@H](C)C(=O)N[C@H](CCC(=O)NCCNCCNc1c2ccccc2nc2cccc([N+](=O)[O-])c12)C(N)=O` (stereo not given in full), the TGI is above 100 µM in the assay with CCRF-CEM leukemia; above 100 µM in the assay with DU-145 prostate; 54.8 µM with HCT-116 colon; above 100 µM in the assay on HCT-15 colon; above 100 µM in the assay with HOP-62 NSCLC; 32.7 µM in the assay with IGROV1 ovarian. Also, the total growth inhibition concentration (TGI) is 46.5 µM in the assay with SK-MEL-2 melanoma, above 100 µM in the assay on T-47D breast and above 100 µM in the assay on U251 CNS.
As to `O=C1CC(O)c2c1csc2Br` (stereo not given), the TGI with CCRF-CEM leukemia was 55.1 µM; with DU-145 prostate, 88 µM; in the assay with HCT-116 colon, 49.1 µM; in the assay with HCT-15 colon it was 39 µM; with HOP-62 NSCLC it was above 100 µM; in the assay on IGROV1 ovarian, 35.9 µM. Also, the TGI in the assay on SK-MEL-2 melanoma is above 100 µM; in the assay with T-47D breast, above 100 µM; in the assay on U251 CNS, 41 µM.
For `Cc1c(Cl)ccc2c(=O)c3cccc(CC(=O)O)c3oc12`, the TGI with CCRF-CEM leukemia, in the assay with DU-145 prostate, in the assay with HCT-116 colon, with HCT-15 colon, with HOP-62 NSCLC and with IGROV1 ovarian was above 100 µM each time. Besides, the total growth inhibition concentration (TGI) in the assay on NCI-H226 lung, in the assay with SK-MEL-2 melanoma and with U251 CNS was above 100 µM in each case.
Turning to `COC(=O)C1=C(C(=O)OC)C2OC1C1C2C2(C)C(C)=C(C)C1(C)S2=O` (stereo not given), the total growth inhibition concentration (TGI) in the assay with DU-145 prostate came to 21.1 µM; in the assay with HCT-116 colon it was 27 µM; in the assay with HCT-15 colon, 20.5 µM; with HOP-62 NSCLC, 41.8 µM; with IGROV1 ovarian it was 39.3 µM; in the assay with NCI-H226 lung, 22.9 µM. In addition, the TGI with SK-MEL-2 melanoma is 28 µM; in the assay with T-47D breast it was 22.2 µM; with U251 CNS it was 26.8 µM.
In the case of `Cc1c(/C=N\NC(=S)N2CCN(C(=S)N/N=C\c3c(C)n(C)n(-c4ccccc4)c3=O)CC2)c(=O)n(-c2ccccc2)n1C`, the TGI was above 100 µM with DU-145 prostate; above 100 µM in the assay on HCT-116 colon; above 100 µM in the assay with HCT-15 colon; above 100 µM in the assay on HOP-62 NSCLC; above 100 µM in the assay with NCI-H226 lung; 92.7 µM with SK-MEL-2 melanoma. The TGI with T-47D breast and in the assay with U251 CNS was above 100 µM in each case.
Regarding `O=c1c2c3ccccc3[nH]c2c2cccc3c2n1CCC3`, the TGI in the assay with CCRF-CEM leukemia, with DU-145 prostate, in the assay with HCT-116 colon, in the assay with HCT-15 colon, with HOP-62 NSCLC and with IGROV1 ovarian was above 100 µM in each case. Moreover, the concentration for total growth inhibition (TGI) with NCI-H226 lung, in the assay on T-47D breast and in the assay with U251 CNS was above 100 µM each time.
What is called GI50 is the concentration giving 50% growth inhibition. Turning to `Cc1[nH]c(/C=C2\C(=O)Nc3ccc(S(=O)(=O)Cc4c(Cl)cccc4Cl)cc32)c(C)c1C(=O)N1CCC[C@@H]1CN1CCCC1`, the GI50 was 1.85 µM in the assay on DU-145 prostate; 1.71 µM in the assay with HCT-15 colon; 1.99 µM in the assay on HOP-62 NSCLC; 3.09 µM in the assay on IGROV1 ovarian; 15.1 µM with NCI-H226 lung; 12.5 µM in the assay with SK-MEL-2 melanoma. Further, the GI50 in the assay on T-47D breast is 12.2 µM. Moreover, the TGI in the assay with DU-145 prostate was found to be 3.39 µM; in the assay with HCT-15 colon, 3.51 µM; with HOP-62 NSCLC it was 4.55 µM; in the assay on IGROV1 ovarian, 7.98 µM; with NCI-H226 lung, 54.8 µM; with SK-MEL-2 melanoma it was 53.1 µM. The same compound displayed a total growth inhibition concentration (TGI) in the assay on T-47D breast of 35.9 µM.
For `O=c1[nH]cnc2c(C3OC(CO)C(O)C3O)c[nH]c12` (stereo not given), the total growth inhibition concentration (TGI) in the assay with CCRF-CEM leukemia, in the assay with DU-145 prostate, with HCT-116 colon, in the assay on HOP-62 NSCLC, in the assay on IGROV1 ovarian and in the assay on NCI-H226 lung was above 100 µM in each case. Moreover, the TGI in the assay with T-47D breast and in the assay with U251 CNS was above 100 µM throughout.
`CC1C(c2cc(C(C)(C)C)c(O)c(C(C)(C)C)c2)c2cc3c(cc2OC1N1CCOCC1)OCO3` (stereo not given): the TGI in the assay with CCRF-CEM leukemia is above 100 µM; in the assay on DU-145 prostate, above 100 µM; in the assay with HCT-116 colon, 30.7 µM; in the assay on HOP-62 NSCLC, 33.4 µM; with IGROV1 ovarian, above 100 µM; with SK-MEL-2 melanoma it was 67.3 µM. The TGI in the assay with T-47D breast was above 100 µM.
As for `N#Cc1c(N)[nH]c(=S)c(C#N)c1-c1cccc(Cl)c1`, the TGI in the assay with DU-145 prostate was above 100 µM; in the assay with HCT-116 colon it was 60.6 µM; with HCT-15 colon it was above 100 µM; with HOP-62 NSCLC, above 100 µM; with IGROV1 ovarian it was above 100 µM; in the assay on NCI-H226 lung, above 100 µM. Moreover, the TGI was 56.6 µM in the assay on SK-MEL-2 melanoma and above 100 µM in the assay on U251 CNS.
Turning to `O=C(NS(=O)(=O)Nc1ccc(Cl)cc1)OCc1ccc(Cl)cc1Cl`, the TGI in the assay on CCRF-CEM leukemia is above 100 µM; in the assay on DU-145 prostate it was 46.5 µM; with HCT-116 colon, 45.5 µM; in the assay with HCT-15 colon it was above 100 µM; in the assay on HOP-62 NSCLC, above 100 µM; in the assay with IGROV1 ovarian it was 52.8 µM. Besides, the TGI with SK-MEL-2 melanoma was found to be 90.2 µM; in the assay on U251 CNS, 66.7 µM.
With `Cc1c(S(=O)(=O)c2ccccc2)c(N)n(Cc2ccccc2)c1C`, the TGI with CCRF-CEM leukemia, with DU-145 prostate, with HCT-116 colon, in the assay on HCT-15 colon, in the assay on IGROV1 ovarian and with NCI-H226 lung was above 100 µM in each case. The TGI in the assay on SK-MEL-2 melanoma and in the assay on U251 CNS was above 100 µM each time.
Regarding `CC(C)CC(N)C(=O)OCN1C(=O)C2C3C=CC(C2C1=O)C1C2C(=O)N(COC(=O)C(N)CC(C)C)C(=O)C2C31` (stereo not given), the total growth inhibition concentration (TGI) is above 100 µM in the assay with CCRF-CEM leukemia; above 60.5 µM in the assay on HCT-116 colon; above 64.5 µM in the assay on HCT-15 colon; above 100 µM with HOP-62 NSCLC; above 100 µM in the assay with IGROV1 ovarian; above 100 µM in the assay with NCI-H226 lung. Further, the total growth inhibition concentration (TGI) with SK-MEL-2 melanoma and in the assay on U251 CNS was above 100 µM throughout.
Take `CC(=O)OCC1OC(N2C(=O)/C(=C\c3ccc(Cl)cc3)C(N)=Nc3ccccc32)C(OC(C)=O)C(OC(C)=O)C1OC(C)=O` (stereo not given): the total growth inhibition concentration (TGI) in the assay on DU-145 prostate is above 100 µM; in the assay with HCT-116 colon, 30.2 µM; in the assay on HCT-15 colon, 59.2 µM; in the assay with HOP-62 NSCLC it was 85.7 µM; with IGROV1 ovarian, 63.4 µM; with SK-MEL-2 melanoma, 74.6 µM. Moreover, the concentration for total growth inhibition (TGI) in the assay on T-47D breast was 39.1 µM; with U251 CNS, 30.5 µM.
In the case of `CC(C)C(Sc1nc(-c2ccccc2)c(-c2ccccc2)[nH]1)C(=O)NNC(=S)Nc1ccccc1` (stereo not given), the TGI with CCRF-CEM leukemia was found to be 38 µM; with HCT-116 colon, 42.2 µM; in the assay on HCT-15 colon it was 33.8 µM; in the assay on HOP-62 NSCLC, 39.8 µM; with IGROV1 ovarian, 35.7 µM; in the assay on NCI-H226 lung it was 37.2 µM. Besides, the concentration for total growth inhibition (TGI) in the assay with SK-MEL-2 melanoma was 36.6 µM; in the assay with U251 CNS it was 30 µM.
